The results in this text go back to US7511123B2, “Immuno-interactive fragments of the alpha-C subunit of inhibin” (Prince Henry's Institute of Medical Research, priority 1999, dated 2009).

Assay [1] relates to As #41. As to the kind of experiment: Competitive 2-site assay (Assay 3), approach (b). The format is binding, sheep. As to conditions: biotinylated peptide pools or peptides incubated with iodinated As #41. The text has this:
This assay was developed to establish the relative importance of the individual peptides and peptide pools (identified as epitopes in Assays 1 and 2) in the sandwich antibody format used in the IFMA with As #128 as capture antibody and As #41 as detection antibody. Two approaches (a and b) were considered, Approach (a) explores the cross-reaction of peptides with inhibin for the immobilized As #128 while Approach (b) assesses their cross-reaction with inhibin for As #41.
Approach (b). In this approach, the competition of peptides with the As #41 antiserum using the sandwich antibody format was assessed. Hr-Inhibin was initially incubated with the As #128 coated wells for 1 hour at room temperature. The biotinylated peptide pools and/or individual peptides were incubated together with iodinated As #41 for 1 hour and then added to the inhibin bound As #128 coated plates and incubated for 2 hours at room temperature. Plates were then washed to remove any unbound material and the resulting activity was measured in the gamma counter.

Assay [2] has as its system PO-22. Nature of the assay: RIA of Set 2 peptides with PO-22. It is filed as binding, mouse. The note with it: Set 2 biotinylated peptides 0.8 and 0.08 micromoles/L. How it is done:
The binding of the 41 biotinylated peptides as set forth in Table 7 (peptide set 2) to the mouse monoclonal antibodies (PO# series) was assessed as follows: b) Assay 2 (radioimrnunoassay, RIA) using iodinated human inhibin A as tracer. Mabs (at an appropriate dilution, see above) were incubated with iodinated human recombinant inhibin in the presence of biotinylated peptides (0.8 and 0.08 micromoles/L final concentration) overnight at room temperature.

For assay [3], the system named is As #1989. As to the kind of experiment: RIA (Assay 2): competition with iodinated inhibin for As #1989. The format is binding, rabbit. The method, boiled down:
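Radioimmunoassay measuring how well peptides compete with iodinated 30 kDa human recombinant inhibin tracer for binding to antiserum #1989. Graded doses of peptide, iodinated inhibin and diluted antiserum were incubated overnight at 4° C. Antibody-bound tracer was precipitated with goat anti-sheep IgG serum and counted in a gamma counter. The ED50, the peptide concentration halving tracer binding, indicated affinity.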

The test system of assay [4] is As #128. As to the kind of experiment: Solid phase assay (Assay 1): biotinylated peptides binding to As #128. Details: species or system sheep; key: +++++ major contribution; + minor contribution. The note with it: relative contribution. The method, boiled down: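 The 31 biotinylated peptides were captured on streptavidin-coated wells for 2 h at room temperature, then incubated with ovine antiserum #41 or #128 for 2 h at room temperature. Bound antiserum was detected with HRP-labelled anti-ovine IgG and a colorimetric substrate read spectrophotometrically; the signal is proportional to peptide binding.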

Assay [5] concerns As #128. As to the kind of experiment: Two-site assay design: peptides pre-incubated with As #128 coated plate. The format is binding, sheep. The note with it: non-biotinylated peptides 0.1-1 micromolar. Here is the method: On the other hand, the IFMA design is based on the total amount of inhibin bound which is a combination of both antibody affinity and concentration. In order to establish to what extent epitopes to these peptides contribute to the overall IFMA, the following two-site assay designs were used.
(i) Peptides #5, #20 and #30 (0, 0.1-1 micromolar) were incubated with the As #128 coated plate for 1.5 hours at RT and the wells washed. The highest dose of peptide used was saturating.
(ii) Hr-Inhibin was then added as a saturating or near saturating dose to the As #128 coated plate and incubated for 2 hours at room temperature and the plate washed.
(iii) Biotinylated As #41 was added to the above wells and incubated for 2 hours at RT. Plates were then washed and counted.

Assay [6] has as its system As#41. Nature of the assay: Sandwich assay with As#41 as both coating and labeled antibody, no inhibin. It is filed as binding, sheep. The note with it: peptide added to both coating and labeled As#41. The text has this:
It has not been established if the same antibodies are present in As #128.

Assay [7] concerns As #128. As to the kind of experiment: RIA (Assay 2): competition with iodinated inhibin for As #128. It is filed as binding, sheep. Put shortly:
(§1)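 Graded doses of peptide or hr-inhibin standard competed with iodinated human recombinant 30 kDa inhibin tracer for the sheep antiserum at a set dilution, overnight at 4°C. Bound tracer was precipitated with goat anti-sheep IgG and gamma-counted. ED50 is the dose producing 50% loss of tracer binding.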

Assay [8] deals with As#128 and/or As#41. Nature of the assay: Inhibin IFMA with pre-immunoabsorption of antisera by peptides. The format is binding, sheep. The text has this:
This IFMA is used in the measurement of inhibin in serum from women with ovarian cancer and is presented at this juncture as a reference to the following procedures. The IFMA is a sandwich antibody assay in 96-well microtiter plates. The capture antiserum is As #128 and the labeled antiserum As #41, both raised in sheep to the alpha subunit of human inhibin. Sheep As #128 was also boosted with human recombinant 30-kDa inhibin. The microtiter plates were coated with a caprylic acid IgG cut of antiserum #128. Inhibin standard and serum samples were added and incubated for 2 hours at room temperature. A biotinylated antiserum (As #41) which has been immunopurified by absorption to a column of bovine (alpha)C subunit fusion protein (as previously described, Robertson et al., 1997, supra) followed by elution with a glycine (pH 2.5) buffer, was added to bind to the antibody-bound inhibin (2-hour incubation at room temperature). Fluorescently (Eu) labeled-streptavidin that has a high affinity for biotin is added (30 minutes at room temperature) and the Eu-bound streptavidin is counted in a time-resolved fluorimeter. The Eu measured is proportional to the inhibin bound by the two antisera.
As another approach, the competition of combinations of peptides at a maximum saturating dose was assessed in the IFMA (FIGS. 7-9). […] This suppression in binding provides a measure of the contribution of that particular epitope to the assay.

For assay [9], the system named is As #41. Nature of the assay: RIA (Assay 2): competition with iodinated inhibin for As #41. The format is binding, sheep. The method, boiled down: as §1
Where [10] appears, read: biotinylated peptides, 50% fall in binding of iodinated inhibin.
The mark [11] stands for this setting: non-biotinylated peptides, hr-inhibin A as standard.

As for SGSG WSPSALRLLQRPPE [Peptide 5], the “blocking of As #41 binding to the inhibin-As#128 complex” value in [1] turned out to be 50%. For the same substance, the “PO-22 RIA” value in [2] is reported as “ΦΦ”. Moreover, the “As#1989 ED50” value in assay [3] (setting [10]) was more than 2.5 µM. Also, the “ED50 values As#1989” value in assay [3] (setting [11]) is more than 10 µM. Also, the “#128 Antibody screen Assay 1” value in assay [4] was “+”. Further, the “suppression in binding with As #128” value in assay [5] was determined as 65%. For the same substance, the “binding in the absence of inhibin” value in [6] was “significant binding”. The “As#128 ED50” value in assay [7] (setting [10]) came out at 3.8 µM. Also, the “ED50 values As#128” value in [7] (setting [11]) is more than 10 µM. Moreover, the “% suppression at 2ng inhibin” value is given as 67% in assay [8] (As#41 label pre-absorbed with peptide, As#128 coating antibody: buffer); 55% in [8] (As#128 coating antibody pre-absorbed with peptide(s), As#41 label: buffer); 73% in [8] (both antisera pre-absorbed, label gives peptide(s) on As#128 coating first, then on As#41 label). In addition, the “As#41 ED50” value in [9] (setting [10]) was 15 pM. The “cross-reaction with hr-inhibin for As #41 in RIA” value in [9] (in words) is “cross-reacted strongly”. In [9] (setting [11]), the “ED50 values As#41” value is 0.0004 µM.
